{"source": "patent US9993494B2", "about": "“Compositions and methods for treating fibrotic disease” (eFFECTOR Therapeutics, Inc., priority 2014, dated 2018)", "system": "normal human lung fibroblasts", "experiment": "Ribosomal profiling: translational efficiency in TGFβ-treated fibroblasts", "format": "cell-based", "settings": "TGFβ-treated fibroblasts", "description": "Ribosomal profiling allows for measurement of changes in transcription and translation on a genome-wide basis accompanying TGFβ-dependent transformation of fibroblasts to myofibroblasts. Ribosomal profiles of the TGFβ-treated fibroblasts from Example 1 (about 6×10^6 cells/10 cm plate) were prepared and analyzed for changes in translational efficiencies with respect to potential disease-associated cellular changes accompanying this TGFβ-induced transformation.\nBriefly, cells were washed with cold PBS supplemented with cycloheximide and lysed with 1× mammalian cell lysis buffer for 10 minutes on ice. Lysates were clarified by centrifugation for 10 minutes at 14,000 rpm and supernatants were collected. Cell lysates were processed to generate ribosomal protected fragments and total mRNA according to the instructions included with the ARTseq Ribosome Profiling Kit (Illumina, San Diego, Calif.). Sequencing of total RNA (RNA) and of ribosome-protected fragments of RNA (RPF) was carried out using RNA-Seq methodology according to the manufacturer's instructions (Illumina). To analyze the ribosomal profiles, RNA-Seq reads were processed with tools from the FASTX-Toolkit (fastq_quality_trimmer, fastx_clipper and fastx_trimmer). Unprocessed and processed reads were evaluated for a variety of quality measures using FastQC, and processed reads were mapped to the human genome using TopHat (see, e.g., Trapnell et al., Bioinformatics 25:1105, 2009). Gene-by-gene assessment of the number of fragments strictly and uniquely mapping to the coding region of each gene was conducted using HTSeq-count, a component of the HTSeq package. […] Genes with low counts in either RPF or RNA were excluded from differential analyses. Pathway and network analyses of differential data were conducted using Ingenuity Pathway Analysis (IPA).", "data": [{"smiles": "COC(=O)[C@H]1[C@@H](O)[C@@]2(O)c3c(OC)cc(O[C@@H]4O[C@@H]([C@H](O)CO)CO[C@H]4OC)cc3O[C@@]2(c2ccc(OC)cc2)[C@@H]1c1ccccc1", "note": "[Silvestrol]", "values": [{"measurement": "effect in renormalizing the translational profile of the gene", "setting": "gene RPS6KA5 (ENSG00000100784)", "result": "+ (+ = 0.9 to 1.5)"}, {"measurement": "effect in renormalizing the translational profile of the gene", "setting": "gene RPS7 (ENSG00000171863)", "result": "− (− = <0.9)"}, {"measurement": "effect in renormalizing the translational profile of the gene", "setting": "gene RPS8 (ENSG00000142937)", "result": "− (− = <0.9)"}, {"measurement": "effect in renormalizing the translational profile of the gene", "setting": "gene RPS9 (ENSG00000170889)", "result": "− (− = <0.9)"}, {"measurement": "effect in renormalizing the translational profile of the gene", "setting": "gene RPS10 (ENSG00000124614)", "result": "− (− = <0.9)"}, {"measurement": "effect in renormalizing the translational profile of the gene", "setting": "gene RPS11 (ENSG00000142534)", "result": "− (− = <0.9)"}, {"measurement": "effect in renormalizing the translational profile of the gene", "setting": "gene RPS12 (ENSG00000112306)", "result": "− (− = <0.9)"}, {"measurement": "effect in renormalizing the translational profile of the gene", "setting": "gene RPS13 (ENSG00000110700)", "result": "− (− = <0.9)"}, {"measurement": "effect in renormalizing the translational profile of the gene", "setting": "gene RPS14 (ENSG00000164587)", "result": "− (− = <0.9)"}, {"measurement": "effect in renormalizing the translational profile of the gene", "setting": "gene RPS15 (ENSG00000115268)", "result": "− (− = <0.9)"}, {"measurement": "effect in renormalizing the translational profile of the gene", "setting": "gene RPS15A (ENSG00000134419)", "result": "− (− = <0.9)"}, {"measurement": "effect in renormalizing the translational profile of the gene", "setting": "gene RPS16 (ENSG00000105193)", "result": "− (− = <0.9)"}, {"measurement": "effect in renormalizing the translational profile of the gene", "setting": "gene RPS18 (ENSG00000231500)", "result": "− (− = <0.9)"}, {"measurement": "effect in renormalizing the translational profile of the gene", "setting": "gene RPS19 (ENSG00000105372)", "result": "− (− = <0.9)"}, {"measurement": "effect in renormalizing the translational profile of the gene", "setting": "gene RPS20 (ENSG00000008988)", "result": "− (− = <0.9)"}, {"measurement": "effect in renormalizing the translational profile of the gene", "setting": "gene RPS21 (ENSG00000171858)", "result": "− (− = <0.9)"}, {"measurement": "effect in renormalizing the translational profile of the gene", "setting": "gene RPS23 (ENSG00000186468)", "result": "− (− = <0.9)"}, {"measurement": "effect in renormalizing the translational profile of the gene", "setting": "gene RPS24 (ENSG00000138326)", "result": "− (− = <0.9)"}, {"measurement": "effect in renormalizing the translational profile of the gene", "setting": "gene RPS25 (ENSG00000118181)", "result": "− (− = <0.9)"}, {"measurement": "effect in renormalizing the translational profile of the gene", "setting": "gene RPS26 (ENSG00000197728)", "result": "− (− = <0.9)"}, {"measurement": "effect in renormalizing the translational profile of the gene", "setting": "gene RPS27 (ENSG00000177954)", "result": "− (− = <0.9)"}, {"measurement": "effect in renormalizing the translational profile of the gene", "setting": "gene RPS27A (ENSG00000143947)", "result": "− (− = <0.9)"}, {"measurement": "effect in renormalizing the translational profile of the gene", "setting": "gene RPS28 (ENSG00000233927)", "result": "− (− = <0.9)"}, {"measurement": "effect in renormalizing the translational profile of the gene", "setting": "gene RPS29 (ENSG00000213741)", "result": "− (− = <0.9)"}, {"measurement": "effect in renormalizing the translational profile of the gene", "setting": "gene RPSA (ENSG00000168028)", "result": "− (− = <0.9)"}, {"measurement": "effect in renormalizing the translational profile of the gene", "setting": "gene RTN2 (ENSG00000125744)", "result": "− (− = <0.9)"}, {"measurement": "effect in renormalizing the translational profile of the gene", "setting": "gene SEMA3A (ENSG00000075213)", "result": "− (− = <0.9)"}, {"measurement": "effect in renormalizing the translational profile of the gene", "setting": "gene SGIP1 (ENSG00000118473)", "result": "+ (+ = 0.9 to 1.5)"}, {"measurement": "effect in renormalizing the translational profile of the gene", "setting": "gene SHC3 (ENSG00000148082)", "result": "− (− = <0.9)"}, {"measurement": "effect in renormalizing the translational profile of the gene", "setting": "gene SLC2A12 (ENSG00000146411)", "result": "++ (++ = 1.5 to 2.0)"}, {"measurement": "effect in renormalizing the translational profile of the gene", "setting": "gene SLC7A7 (ENSG00000155465)", "result": "− (− = <0.9)"}, {"measurement": "effect in renormalizing the translational profile of the gene", "setting": "gene SLC15A3 (ENSG00000110446)", "result": "− (− = <0.9)"}, {"measurement": "effect in renormalizing the translational profile of the gene", "setting": "gene SLC25A6 (ENSG00000169100)", "result": "− (− = <0.9)"}, {"measurement": "effect in renormalizing the translational profile of the gene", "setting": "gene SLC40A1 (ENSG00000138449)", "result": "− (− = <0.9)"}, {"measurement": "effect in renormalizing the translational profile of the gene", "setting": "gene SMO (ENSG00000128602)", "result": "− (− = <0.9)"}, {"measurement": "effect in renormalizing the translational profile of the gene", "setting": "gene SNRPA (ENSG00000077312)", "result": "+ (+ = 0.9 to 1.5)"}, {"measurement": "effect in renormalizing the translational profile of the gene", "setting": "gene SOX5 (ENSG00000134532)", "result": "− (− = <0.9)"}, {"measurement": "effect in renormalizing the translational profile of the gene", "setting": "gene SOX6 (ENSG00000110693)", "result": "− (− = <0.9)"}, {"measurement": "effect in renormalizing the translational profile of the gene", "setting": "gene SPATA6 (ENSG00000132122)", "result": "− (− = <0.9)"}, {"measurement": "effect in renormalizing the translational profile of the gene", "setting": "gene STAMBPL1 (ENSG00000138134)", "result": "+ (+ = 0.9 to 1.5)"}, {"measurement": "effect in renormalizing the translational profile of the gene", "setting": "gene STS (ENSG00000101846)", "result": "− (− = <0.9)"}, {"measurement": "effect in renormalizing the translational profile of the gene", "setting": "gene SYNE2 (ENSG00000054654)", "result": "− (− = <0.9)"}, {"measurement": "effect in renormalizing the translational profile of the gene", "setting": "gene TAF1D (ENSG00000166012)", "result": "− (− = <0.9)"}, {"measurement": "effect in renormalizing the translational profile of the gene", "setting": "gene TDG (ENSG00000139372)", "result": "− (− = <0.9)"}, {"measurement": "effect in renormalizing the translational profile of the gene", "setting": "gene TEN1 (ENSG00000257949)", "result": "+ (+ = 0.9 to 1.5)"}, {"measurement": "effect in renormalizing the translational profile of the gene", "setting": "gene TET2 (ENSG00000168769)", "result": "− (− = <0.9)"}, {"measurement": "effect in renormalizing the translational profile of the gene", "setting": "gene TET3 (ENSG00000187605)", "result": "− (− = <0.9)"}, {"measurement": "effect in renormalizing the translational profile of the gene", "setting": "gene TGFBI (ENSG00000120708)", "result": "− (− = <0.9)"}, {"measurement": "effect in renormalizing the translational profile of the gene", "setting": "gene THBS3 (ENSG00000169231)", "result": "+ (+ = 0.9 to 1.5)"}, {"measurement": "effect in renormalizing the translational profile of the gene", "setting": "gene THG1L (ENSG00000113272)", "result": "− (− = <0.9)"}, {"measurement": "effect in renormalizing the translational profile of the gene", "setting": "gene TIMM9 (ENSG00000100575)", "result": "− (− = <0.9)"}, {"measurement": "effect in renormalizing the translational profile of the gene", "setting": "gene TKT (ENSG00000163931)", "result": "− (− = <0.9)"}, {"measurement": "effect in renormalizing the translational profile of the gene", "setting": "gene TMTC1 (ENSG00000133687)", "result": "+++ (+++ = >2.0)"}, {"measurement": "effect in renormalizing the translational profile of the gene", "setting": "gene TOMM7 (ENSG00000196683)", "result": "− (− = <0.9)"}, {"measurement": "effect in renormalizing the translational profile of the gene", "setting": "gene TOP2A (ENSG00000131747)", "result": "+++ (+++ = >2.0)"}, {"measurement": "effect in renormalizing the translational profile of the gene", "setting": "gene TPGS1 (ENSG00000141933)", "result": "− (− = <0.9)"}, {"measurement": "effect in renormalizing the translational profile of the gene", "setting": "gene TPM2 (ENSG00000198467)", "result": "− (− = <0.9)"}, {"measurement": "effect in renormalizing the translational profile of the gene", "setting": "gene TPT1 (ENSG00000133112)", "result": "− (− = <0.9)"}, {"measurement": "effect in renormalizing the translational profile of the gene", "setting": "gene TRERF1 (ENSG00000124496)", "result": "+ (+ = 0.9 to 1.5)"}, {"measurement": "effect in renormalizing the translational profile of the gene", "setting": "gene UBA52 (ENSG00000221983)", "result": "− (− = <0.9)"}, {"measurement": "effect in renormalizing the translational profile of the gene", "setting": "gene UQCRB (ENSG00000156467)", "result": "− (− = <0.9)"}, {"measurement": "effect in renormalizing the translational profile of the gene", "setting": "gene UTRN (ENSG00000152818)", "result": "− (− = <0.9)"}, {"measurement": "effect in renormalizing the translational profile of the gene", "setting": "gene VIM (ENSG00000026025)", "result": "− (− = <0.9)"}, {"measurement": "effect in renormalizing the translational profile of the gene", "setting": "gene ZNF581 (ENSG00000171425)", "result": "− (− = <0.9)"}, {"measurement": "effect in renormalizing the translational profile of the gene", "setting": "gene ZNF608 (ENSG00000168916)", "result": "− (− = <0.9)"}]}]}
